From patent US9212168B2 (priority 2011, dated 2015)

tested on: HCV genotype 1a replicon; experiment: HCV genotype 1a replicon assay (NS3 protease activity readout); format: cell-based, hepatitis C virus; conditions: HCV genotype 1a replicon
Procedure, shortened: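 Genotype 1a subgenomic replicon cells (APC89, Huh7.5) were treated with compound dose-responses in G418-free medium, 0.5% DMSO final, for 48 or 72 hours at 37° C. Lysate NS3/4a protease activity measured with 15 μM FRET substrate, 20 min at 37° C (ex 340/em 509 nm); EC50 by 4-parameter fit.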

Question: With `COC(=O)NC(C(=O)N1CC(C)CC1c1nc(-c2ccc(-c3ccc(NC(=O)c4ccc(N5CCN(C(=O)C(C)(C)C)CC5C)nc4)cc3OC(F)(F)F)cc2)c[nH]1)C(C)O` (centres unmarked) [Example 13-13] as the molecule, how does the “Genotype 1a” value read?
Answer: D (D represents pEC50>10 (EC50<0.1 nM))

Question: With `COC(=O)NC(C(=O)N1CC(C)CC1c1nc(-c2ccc(-c3ccc(NC(=O)c4ccc(N5CCN(C(=O)C(C)(C)C)CC5C)nc4)cc3OC(F)(F)F)cc2)c[nH]1)C(C)OC` (centres unmarked) [Example 13-14] as the molecule, how does the “Genotype 1a” value read?
Answer: D (D represents pEC50>10 (EC50<0.1 nM))

Question: `COC(=O)NC(C(=O)N1CC(C)CC1c1nc(-c2ccc(-c3ccc(NC(=O)c4ccc(N5CCN(C(=O)C(C)(C)C)CC5C)nc4)cc3OC(F)(F)F)cc2)c[nH]1)C(C)(C)O` (centres unmarked) [Example 13-15] was tested. Which “Genotype 1a” value did it give?
Answer: D (D represents pEC50>10 (EC50<0.1 nM))

same assay, conditions: Hepatitis C virus, read-out: Genotype 1a, HCV genotype 1a replicon

Question: Which EC50 does the source give for `COC(=O)N[C@H](C(=O)N1C[C@@H](C)C[C@H]1c1nc(-c2ccc(-c3cc(Cl)c(NC(=O)c4ccc(N5CCN(C(=O)C(C)(C)N(C)C)C[C@H]5C)nc4)cc3OC(F)(F)F)cc2)c[nH]1)C(C)C` [Example 12-20] here?
Answer: < 0.1 nM

Question: Which EC50 does the source give for `COC(=O)N[C@H](C(=O)N1C[C@@H](C)C[C@H]1c1nc(-c2ccc(-c3cc(Cl)c(NC(=O)c4ccc(N5CCN(C(=O)C6CCC6(C)C)C[C@H]5C)nc4)cc3OC(F)(F)F)cc2)c[nH]1)C(C)C` (some centres unmarked) [Example 12-21] here?
Answer: < 0.1 nM

Question: How did the EC50 turn out when `CCN(C)C(C)C(=O)N1CCN(c2ccc(C(=O)Nc3cc(OC(F)(F)F)c(-c4ccc(-c5c[nH]c([C@@H]6C[C@H](C)CN6C(=O)[C@@H](NC(=O)OC)C(C)C)n5)cc4)cc3Cl)cn2)[C@H](C)C1` (some centres unmarked) [Example 12-22] was run?
Answer: 0.1 to 1 nM

Question: `COC(=O)N[C@H](C(=O)N1C[C@@H](C)C[C@H]1c1nc(-c2ccc(-c3cc(Cl)c(NC(=O)c4ccc(N5CCN(C(=O)C(C)N(C)C)C[C@H]5C)nc4)cc3OC(F)(F)F)cc2)c[nH]1)C(C)C` (some centres unmarked) [Example 12-23] was tested. Which EC50 did it give?
Answer: < 0.1 nM

Question: For `COC(=O)N[C@H](C(=O)N1C[C@@H](C)C[C@H]1c1nc(-c2ccc(-c3cc(Cl)c(NC(=O)c4ccc(N5CCN(C(=O)C(C)(C)N6CCOCC6)C[C@H]5C)nc4)cc3OC(F)(F)F)cc2)c[nH]1)C(C)C` [Example 12-26], which EC50 is on record?
Answer: < 0.1 nM

Question: For `COC(=O)N[C@H](C(=O)N1C[C@@H](C)C[C@H]1c1nc(-c2ccc(-c3cc(Cl)c(NC(=O)c4ccc(N5CCN(C(=O)C6CCOCC6)C[C@H]5C)nc4)cc3OC(F)(F)F)cc2)c[nH]1)C(C)C` [Example 12-27], which EC50 is on record?
Answer: 0.1 to 1 nM

Question: `COC(=O)N[C@H](C(=O)N1C[C@@H](C)C[C@H]1c1nc(-c2ccc(-c3cc(Cl)c(NC(=O)c4ccc(N5CCN(C(=O)CC6CCOCC6)C[C@H]5C)nc4)cc3OC(F)(F)F)cc2)c[nH]1)C(C)C` [Example 12-28] was tested. Which EC50 did it give?
Answer: < 0.1 nM

Question: How did the EC50 turn out when `COC(=O)CC(=O)NCC(C)(C)C(=O)N1CCN(c2ccc(C(=O)Nc3cc(OC(F)(F)F)c(-c4ccc(-c5c[nH]c([C@@H]6C[C@H](C)CN6C(=O)[C@@H](NC(=O)OC)C(C)C)n5)cc4)cc3Cl)cn2)[C@H](C)C1` [Example 12-33] was run?
Answer: 0.1 to 1 nM

Question: `COC(=O)N[C@H](C(=O)N1C[C@@H](C)C[C@H]1c1nc(-c2ccc(-c3cc(Cl)c(NC(=O)c4ccc(N5CCN(C(=O)C(C)(C)CNC(=O)CCCC(=O)O)C[C@H]5C)nc4)cc3OC(F)(F)F)cc2)c[nH]1)C(C)C` [Example 12-34] was tested. Which EC50 did it give?
Answer: 0.1 to 1 nM

Question: For `COC(=O)N[C@H](C(=O)N1C[C@@H](C)C[C@H]1c1nc(-c2ccc(-c3cc(Cl)c(NC(=O)c4ccc(N5CCN(C(=O)C(C)(C)CN)C[C@H]5C)nc4)cc3OC(F)(F)F)cc2)c[nH]1)C(C)C` [Example 12-36], which EC50 is on record?
Answer: 10 to 1000 nM

Question: `COC(=O)N[C@H](C(=O)N1C[C@@H](C)C[C@H]1c1nc(-c2ccc(-c3cc(Cl)c(NC(=O)c4ccc(N5CCN(C(=O)C(C)(C)CNC(=O)C6CC6)C[C@H]5C)nc4)cc3OC(F)(F)F)cc2)c[nH]1)C(C)C` [Example 12-37] was tested. Which EC50 did it give?
Answer: 0.1 to 1 nM

Question: Which EC50 does the source give for `COC(=O)N[C@H](C(=O)N1C[C@@H](C)C[C@H]1c1nc(-c2ccc(-c3cc(Cl)c(NC(=O)c4ccc(N5CCN(C(=O)C(C)(C)CNC(=O)C(C)(C)C)C[C@H]5C)nc4)cc3OC(F)(F)F)cc2)c[nH]1)C(C)C` [Example 12-38] here?
Answer: 0.1 to 1 nM

Question: Which EC50 does the source give for `COC(=O)NCC(C)(C)C(=O)N1CCN(c2ccc(C(=O)Nc3cc(OC(F)(F)F)c(-c4ccc(-c5c[nH]c([C@@H]6C[C@H](C)CN6C(=O)[C@@H](NC(=O)OC)C(C)C)n5)cc4)cc3Cl)cn2)[C@H](C)C1` [Example 12-39] here?
Answer: < 0.1 nM

Question: `CNC(=O)NCC(C)(C)C(=O)N1CCN(c2ccc(C(=O)Nc3cc(OC(F)(F)F)c(-c4ccc(-c5c[nH]c([C@@H]6C[C@H](C)CN6C(=O)[C@@H](NC(=O)OC)C(C)C)n5)cc4)cc3Cl)cn2)[C@H](C)C1` [Example 12-40] was tested. Which EC50 did it give?
Answer: < 0.1 nM

Question: `CCC(=O)NCC(C)(C)C(=O)N1CCN(c2ccc(C(=O)Nc3cc(OC(F)(F)F)c(-c4ccc(-c5c[nH]c([C@@H]6C[C@H](C)CN6C(=O)[C@@H](NC(=O)OC)C(C)C)n5)cc4)cc3Cl)cn2)[C@H](C)C1` [Example 12-41] was tested. Which EC50 did it give?
Answer: 0.1 to 1 nM

Question: How did the EC50 turn out when `COC(=O)N[C@H](C(=O)N1C[C@@H](C)C[C@H]1c1nc(-c2ccc(-c3cc(Cl)c(NC(=O)c4ccc(N5CCN(C(=O)C(C)(C)CNC(C)=O)C[C@H]5C)nc4)cc3OC(F)(F)F)cc2)c[nH]1)C(C)C` [Example 12-42] was run?
Answer: < 0.1 nM

Question: `COC(=O)N[C@H](C(=O)N1C[C@@H](C)C[C@H]1c1nc(-c2ccc(-c3cc(Cl)c(NC(=O)c4ccc(N5CCN(C(=O)C(C)(C)OC)C[C@H]5C)nc4)cc3OC(F)(F)F)cc2)c[nH]1)C(C)C` [Example 12-43] was tested. Which EC50 did it give?
Answer: < 0.1 nM

Question: `COCC1(C(=O)N2CCN(c3ccc(C(=O)Nc4cc(OC(F)(F)F)c(-c5ccc(-c6c[nH]c([C@@H]7C[C@H](C)CN7C(=O)[C@@H](NC(=O)OC)C(C)C)n6)cc5)cc4Cl)cn3)[C@H](C)C2)CC1` [Example 12-44] was tested. Which EC50 did it give?
Answer: < 0.1 nM

Question: How did the EC50 turn out when `COCC1(C(=O)N2CCN(c3ccc(C(=O)Nc4cc(OC(F)(F)F)c(-c5ccc(-c6c[nH]c([C@@H]7C[C@H](C)CN7C(=O)[C@@H](NC(=O)OC)C(C)C)n6)cc5)cc4Cl)cn3)[C@H](C)C2)CCC1` [Example 12-45] was run?
Answer: < 0.1 nM

Question: For `COC(=O)N[C@H](C(=O)N1C[C@@H](C)C[C@H]1c1nc(-c2ccc(-c3cc(Cl)c(NC(=O)c4ccc(N5CCN(C(=O)C(C)(C)CNS(C)(=O)=O)C[C@H]5C)nc4)cc3OC(F)(F)F)cc2)c[nH]1)C(C)C` [Example 12-46], which EC50 is on record?
Answer: < 0.1 nM

Question: With `COC(=O)N[C@H](C(=O)N1C[C@@H](C)C[C@H]1c1nc(-c2ccc(-c3cc(Cl)c(NC(=O)c4ccc(N5CCN(C(=O)C6(C)COC6)C[C@H]5C)nc4)cc3OC(F)(F)F)cc2)c[nH]1)C(C)C` [Example 12-48] as the molecule, how does the EC50 read?
Answer: < 0.1 nM

Question: With `COC(=O)N[C@H](C(=O)N1C[C@@H](C)C[C@H]1c1nc(-c2ccc(-c3cc(Cl)c(NC(=O)c4ccc(N5CCN(C(=O)C6CCO6)C[C@H]5C)nc4)cc3OC(F)(F)F)cc2)c[nH]1)C(C)C` (some centres unmarked) [Example 12-49] as the molecule, how does the EC50 read?
Answer: < 0.1 nM

Question: `COC(=O)N[C@H](C(=O)N1C[C@@H](C)C[C@H]1c1nc(-c2ccc(-c3cc(Cl)c(NC(=O)c4ccc(N5CCN(C(=O)C6CNC6)C[C@H]5C)nc4)cc3OC(F)(F)F)cc2)c[nH]1)C(C)C` [Example 12-51] was tested. Which EC50 did it give?
Answer: 0.1 to 1 nM

Question: How did the EC50 turn out when `COC(=O)N[C@H](C(=O)N1C[C@@H](C)C[C@H]1c1nc(-c2ccc(-c3cc(Cl)c(NC(=O)c4ccc(N5CCN(C(=O)C6CC(N)C6)C[C@H]5C)nc4)cc3OC(F)(F)F)cc2)c[nH]1)C(C)C` (some centres unmarked) [Example 12-52] was run?
Answer: 0.1 to 1 nM

Question: `COC(=O)N[C@H](C(=O)N1C[C@@H](C)C[C@H]1c1nc(-c2ccc(-c3cc(Cl)c(NC(=O)c4ccc(N5CCN(C(=O)C6CC(CO)C6)C[C@H]5C)nc4)cc3OC(F)(F)F)cc2)c[nH]1)C(C)C` (some centres unmarked) [Example 12-55] was tested. Which EC50 did it give?
Answer: < 0.1 nM

Question: `COC(=O)N[C@H](C(=O)N1C[C@@H](C)C[C@H]1c1nc(-c2ccc(-c3cc(Cl)c(NC(=O)c4ccc(N5CCN(C(=O)C(C)(C)C(=O)O)C[C@H]5C)nc4)cc3OC(F)(F)F)cc2)c[nH]1)C(C)C` [Example 12-58] was tested. Which EC50 did it give?
Answer: 0.1 to 1 nM

Question: With `CC(C)[C@@H](C(=O)N1C[C@@H](C)C[C@H]1c1nc(-c2ccc(-c3cc(Cl)c(NC(=O)c4ccc(N5CCN(C(=O)C(C)(C)C)C[C@H]5C)nc4)cc3OC(F)(F)F)cc2)c[nH]1)N1CCCCC1` [Example 13-2] as the molecule, how does the EC50 read?
Answer: 10 to 1000 nM

Question: Which EC50 does the source give for `C[C@H]1C[C@@H](c2nc(-c3ccc(-c4cc(Cl)c(NC(=O)c5ccc(N6CCN(C(=O)C(C)(C)C)C[C@H]6C)nc5)cc4OC(F)(F)F)cc3)c[nH]2)N(C(=O)C(c2ccccc2)N2CCNCC2)C1` (some centres unmarked) [Example 13-3] here?
Answer: 0.1 to 1 nM

Question: For `COC(=O)N1CCN(C(C(=O)N2C[C@@H](C)C[C@H]2c2nc(-c3ccc(-c4cc(Cl)c(NC(=O)c5ccc(N6CCN(C(=O)C(C)(C)C)C[C@H]6C)nc5)cc4OC(F)(F)F)cc3)c[nH]2)c2ccccc2)CC1` (some centres unmarked) [Example 13-4], which EC50 is on record?
Answer: 0.1 to 1 nM

Question: For `COC(=O)N[C@H](C(=O)N1C[C@@H](C)C[C@H]1c1nc(-c2ccc(-c3cc(Cl)c(NC(=O)c4ccc(N5CCN(C(=O)C(C)(C)C)C[C@H]5C)nc4)cc3OC(F)(F)F)cc2)c[nH]1)[C@H](C)O` [Example 13-6], which EC50 is on record?
Answer: < 0.1 nM

Question: `COC(=O)N[C@@H](CSC)C(=O)N1C[C@@H](C)C[C@H]1c1nc(-c2ccc(-c3cc(Cl)c(NC(=O)c4ccc(N5CCN(C(=O)C(C)(C)C)C[C@H]5C)nc4)cc3OC(F)(F)F)cc2)c[nH]1` [Example 13-7] was tested. Which EC50 did it give?
Answer: < 0.1 nM

Question: How did the EC50 turn out when `COC(=O)N[C@H](C(=O)N1C[C@@H](C)C[C@H]1c1nc(-c2ccc(-c3cc(Cl)c(NC(=O)c4ccc(N5CCN(C(=O)C(C)(C)C)C[C@H]5C)nc4)cc3OC(F)(F)F)cc2)c[nH]1)[C@H](C)OC` [Example 13-8] was run?
Answer: < 0.1 nM

Question: Which EC50 does the source give for `COCCO[C@H](C)[C@H](NC(=O)OC)C(=O)N1C[C@@H](C)C[C@H]1c1nc(-c2ccc(-c3cc(Cl)c(NC(=O)c4ccc(N5CCN(C(=O)C(C)(C)C)C[C@H]5C)nc4)cc3OC(F)(F)F)cc2)c[nH]1` [Example 13-9] here?
Answer: < 0.1 nM

Question: For `COC(=O)N[C@H](C(=O)N1C[C@@H](C)C[C@H]1c1nc(-c2ccc(-c3cc(F)c(NC(=O)c4ccc(N5CCN(C(=O)C(C)(C)CO)C[C@H]5C)nc4)cc3OC(F)(F)F)cc2)c[nH]1)C(C)(C)O` [Example 13-23], which EC50 is on record?
Answer: < 0.1 nM

Question: How did the EC50 turn out when `COC(=O)N[C@H](C(=O)N1C[C@@H](C)C[C@H]1c1nc(-c2ccc(-c3cc(F)c(NC(=O)c4ccc(N5CCN(C(=O)C(C)(C)CO)C[C@H]5C)nc4)cc3OC(F)(F)F)cc2)c[nH]1)[C@H](C)OC` [Example 13-25] was run?
Answer: 0.1 to 1 nM
